Results from ChEMBL document CHEMBL1127074, “Novel hypotensive agents from Verbesina caracasana. 2. Synthesis and pharmacology of caracasanamide” (1993).
Values joined by “and” are separate entries in the source; they are usually repeats but may differ in a detail not shown here. Identical values can stand only once.

Legend:
[1] = system: Rattus norvegicus; experiment: Maximum rate of rise of the left ventricular isovolumetric pressure (dP/dt) administered at 3200 ug/kg iv in anesthetized rats; assay type: functional, Heart left ventricle
[2] = system: Rattus norvegicus; experiment: Tested for the change in systolic blood pressure administered at 100 ug/kg intravenously in anesthetized rats; assay type: functional, Artery
[3] = system: Rattus norvegicus; experiment: Change in heart rate administered at 800 ug/kg iv in anesthetized rats in presence of phentolamine (2 mg/kg); assay type: functional
[4] = system: Rattus norvegicus; experiment: Maximum rate of rise of the left ventricular isovolumetric pressure administered at 800 ug/kg iv in anesthetized rats in presence of […] (3 mg/kg) (p<0.05); assay type: functional, Heart left ventricle
[5] = system: Rattus norvegicus; experiment: Change in heart rate administered at 100 ug/kg iv in anesthetized rats in presence of spinalization under vagotomy; assay type: functional
[6] = system: Rattus norvegicus; experiment: Tested for the change in systolic blood pressure administered at 200 ug/kg iv in anesthetized rats in presence of spinalization under vagotomy; assay type: functional, Artery
[7] = system: Rattus norvegicus; experiment: Change in heart rate administered at 1600 ug/kg iv in anesthetized rats in presence of propranolol (3 mg/kg) (p<0.05); assay type: functional
[8] = system: Rattus norvegicus; experiment: Tested for the change in systolic blood pressure administered at 6400 ug/kg intravenously in anesthetized rats in presence of propranolol (3 mg/kg); assay type: functional, Artery
[9] = system: Rattus norvegicus; experiment: Tested for the change in diastolic blood pressure administered at 800 ug/kg intravenously in anesthetized rats; assay type: functional, Artery
[10] = system: Rattus norvegicus; experiment: Maximum rate of rise of the left ventricular isovolumetric pressure administered at 6400 ug/kg iv in anesthetized rats in presence of hexamethonium (5 mg/kg) (p<0.05); assay type: functional, Heart left ventricle
[11] = system: Rattus norvegicus; experiment: Tested for the change in systolic blood pressure administered at 800 ug/kg intravenously in anesthetized rats in presence of propranolol (3 mg/kg); assay type: functional, Artery
[12] = system: Rattus norvegicus; experiment: Tested for the change in systolic blood pressure administered at 3200 ug/kg intravenously in anesthetized rats in presence of phentolamine (2 mg/kg); assay type: functional, Artery
[13] = system: Rattus norvegicus; experiment: Change in heart rate administered at 200 ug/kg iv in anesthetized rats in presence of spinalization under vagotomy; assay type: functional
[14] = system: Rattus norvegicus; experiment: Tested for the change in systolic blood pressure administered at 6400 ug/kg intravenously in anesthetized rats; assay type: functional, Artery
[15] = system: Rattus norvegicus; experiment: Maximum rate of rise of the left ventricular isovolumetric pressure administered at 100 ug/kg iv in anesthetized rats in presence of spinalization under vagotomy; assay type: functional, Heart left ventricle
[16] = system: Rattus norvegicus; experiment: Tested for the change in diastolic blood pressure administered at 3200 ug/kg intravenously in anesthetized rats; assay type: functional, Artery
[17] = system: Rattus norvegicus; experiment: Maximum rate of rise of the left ventricular isovolumetric pressure (dP/dt) administered at 800 ug/kg iv in anesthetized rats; assay type: functional, Heart left ventricle
[18] = system: Rattus norvegicus; experiment: Maximum rate of rise of the left ventricular isovolumetric pressure administered at 6400 ug/kg iv in anesthetized rats in presence of […] (3 mg/kg) (p<0.05); assay type: functional, Heart left ventricle
[19] = system: Rattus norvegicus; experiment: Tested for the change in diastolic blood pressure administered at 400 ug/kg intravenously in anesthetized rats; assay type: functional, Artery
[20] = system: Rattus norvegicus; experiment: Tested for the change in diastolic blood pressure administered at 800 ug/kg iv in anesthetized rats in presence of hexamethonium (5 mg/kg) (p<0.05); assay type: functional, Artery
[21] = system: Rattus norvegicus; experiment: Change in heart rate administered at 1600 ug/kg iv in anesthetized rats in presence of hexamethonium (5 mg/kg) (p<0.05); assay type: functional
[22] = system: Rattus norvegicus; experiment: Tested for the change in diastolic blood pressure administered at 100 ug/kg intravenously in anesthetized rats; assay type: functional, Artery
[23] = system: Rattus norvegicus; experiment: Tested for the change in diastolic blood pressure administered at 6400 ug/kg iv in anesthetized rats in presence of propranolol (3 mg/kg); assay type: functional, Artery
[24] = system: Rattus norvegicus; experiment: Maximum rate of rise of the left ventricular isovolumetric pressure administered at 800 ug/kg iv in anesthetized rats in presence of phentolamine (2 mg/kg); assay type: functional, Heart left ventricle
[25] = system: Rattus norvegicus; experiment: Change in respiratory frequency administered at 1600 ug/kg iv in anesthetized rats; assay type: functional
[26] = system: Rattus norvegicus; experiment: Tested for the change in systolic blood pressure administered at 3200 ug/kg intravenously in anesthetized rats; assay type: functional, Artery
[27] = system: Rattus norvegicus; experiment: Change in heart rate administered at 3200 ug/kg iv in anesthetized rats in presence of phentolamine (2 mg/kg); assay type: functional
[28] = system: Rattus norvegicus; experiment: Tested for the change in diastolic blood pressure administered at 1600 ug/kg intravenously in anesthetized rats; assay type: functional, Artery
[29] = system: Rattus norvegicus; experiment: Change in respiratory frequency administered at 50 ug/kg iv in anesthetized rats; assay type: functional
[30] = system: Rattus norvegicus; experiment: Tested for the change in systolic blood pressure administered at 6400 ug/kg intravenously in anesthetized rats in presence of hexamethonium (5 mg/kg) (p<0.05); assay type: functional, Artery
[31] = system: Rattus norvegicus; experiment: Change in heart rate administered at 3200 ug/kg iv in anesthetized rats in presence of hexamethonium (5 mg/kg) (p<0.05); assay type: functional
[32] = system: Rattus norvegicus; experiment: Tested for the change in systolic blood pressure administered at 1600 ug/kg intravenously in anesthetized rats in presence of hexamethonium (5 mg/kg) (p<0.05); assay type: functional, Artery
[33] = system: Rattus norvegicus; experiment: Tested for the change in systolic blood pressure administered at 200 ug/kg intravenously in anesthetized rats in presence of spinalization under vagotomy; assay type: functional, Artery
[34] = system: Rattus norvegicus; experiment: Tested for the change in systolic blood pressure administered at 800 ug/kg intravenously in anesthetized rats in presence of hexamethonium (5 mg/kg) (p<0.05); assay type: functional, Artery
[35] = system: Rattus norvegicus; experiment: Tested for the change in systolic blood pressure administered at 3200 ug/kg intravenously in anesthetized rats in presence of hexamethonium (5 mg/kg) (p<0.05); assay type: functional, Artery
[36] = system: Rattus norvegicus; experiment: Tested for the change in systolic blood pressure administered at 1600 ug/kg intravenously in anesthetized rats; assay type: functional, Artery
[37] = system: Rattus norvegicus; experiment: Tested for the change in systolic blood pressure administered at 3200 ug/kg iv in anesthetized rats in presence of spinalization under vagotomy (p<0.05); assay type: functional, Artery
[38] = system: Rattus norvegicus; experiment: Tested for the change in systolic blood pressure administered at 1600 ug/kg intravenously in anesthetized rats in presence of propranolol (3 mg/kg); assay type: functional, Artery
[39] = system: Rattus norvegicus; experiment: Tested for the change in diastolic blood pressure administered at 800 ug/kg iv in anesthetized rats in presence of phentolamine (2 mg/kg); assay type: functional, Artery
[40] = system: Rattus norvegicus; experiment: Maximum rate of rise of the left ventricular isovolumetric pressure (dP/dt) administered at 200 ug/kg iv in anesthetized rats; assay type: functional, Heart left ventricle
[41] = system: Rattus norvegicus; experiment: Change in respiratory frequency administered at 400 ug/kg iv in anesthetized rats; assay type: functional
[42] = system: Rattus norvegicus; experiment: Maximum rate of rise of the left ventricular isovolumetric pressure (dP/dt) administered at 1600 ug/kg iv in anesthetized rats; assay type: functional, Heart left ventricle
[43] = system: Rattus norvegicus; experiment: Tested for the change in diastolic blood pressure administered at 200 ug/kg intravenously in anesthetized rats; assay type: functional, Artery
[44] = system: Rattus norvegicus; experiment: Maximum rate of rise of the left ventricular isovolumetric pressure administered at 4.12 uM/kg iv in anesthetized rats; assay type: functional, Heart left ventricle

## COc1ccc(/C=C/C(=O)NCCCC/N=C(\N)NCC=C(C)C)cc1OC
[1]
  BP: 55%
  dp/dt: 2984 mmHg s-1
[2]
  Blood pressure: -6 mmHg and -8%
[3]
  Heart rate: 17 beats min-1
[4]
  dp/dt: 415 mmHg s-1
[5]
  Heart rate: 0 beats min-1
[6]
  Blood pressure: 0 mmHg
[7]
  Heart rate: 7 beats min-1
[8]
  Blood pressure: -35 mmHg
[9]
  Blood pressure: -15 mmHg and -23%
[10]
  dp/dt: 1447 mmHg s-1
[11]
  Blood pressure: -18 mmHg
[12]
  Blood pressure: -37 mmHg
[13]
  Heart rate: 0 beats min-1
[14]
  Blood pressure: -34 mmHg and -40%
[15]
  dp/dt: 0 mmHg s-1
[16]
  Blood pressure: -29 mmHg and -47%
[17]
  BP: 41%
  dp/dt: 2140 mmHg s-1
[18]
  dp/dt: 853 mmHg s-1
[19]
  Blood pressure: -14 mmHg and -23%
[20]
  Blood pressure: -6 mmHg
[21]
  Heart rate: 10 beats min-1
[22]
  Blood pressure: -6 mmHg and -9%
[23]
  Blood pressure: -28 mmHg
[24]
  dp/dt: 2503 mmHg s-1
[25]
  Frequency: 23 beats min-1 and 21%
[26]
  Blood pressure: -25 mmHg and -29%
[27]
  Heart rate: 24 beats min-1
[28]
  Blood pressure: -18 mmHg and -29%
[29]
  Frequency: 6 beats min-1 and 6%
[30]
  Blood pressure: -13 mmHg
[31]
  Heart rate: 9 beats min-1
[32]
  Blood pressure: -8 mmHg
[33]
  Blood pressure: 0 mmHg
[34]
  Blood pressure: -5 mmHg
[35]
  Blood pressure: -11 mmHg
[36]
  Blood pressure: -21 mmHg and -26%
[37]
  Blood pressure: -8 mmHg and -12 mmHg
[38]
  Blood pressure: -25 mmHg
[39]
  Blood pressure: -19 mmHg
[40]
  BP: 25%
  dp/dt: 1284 mmHg s-1
[41]
  Frequency: 16 beats min-1 and 16%
[42]
  BP: 57%
  dp/dt: 2996 mmHg s-1
[43]
  Blood pressure: -10 mmHg and -16%
[44]
  dP/dtmax: 3000 mmHg/s
